Tests used:
[1] = system: C. tinctoria ALS allele with mutations at both Pro197 and Trp574; assay: Herbicide resistance imparted by the double-mutant ALS allele; parameters: species or system Coreopsis tinctoria; details: for Pre-emergence and/or post-emergence resistance to herbicide: novel allele with two point mutations; for Resistance of the clone with mutations at both Pro197 and Trp574: resistant clone with both mutations
[2] = system: resistant C. tinctoria plants; assay: Greenhouse herbicide spray test, resistant plants; type: in vivo
Experimental: (§1) Response of resistant and susceptible C. tinctoria to imidazolinone and sulfonylurea herbicides treatments: Both wild-type and mutant strains of C. tinctoria were planted in the greenhouse with ˜100 seeds per pot. Individual plants were transplanted to separate pots after seven weeks. The greenhouse regime comprised natural light with temperatures of 25 to 30° C. during the day and 15 to 20° C. at night. The experimental setup was a completely randomized design with five treatments and six plants (replications) per treatment for both wild-type and mutant strains. The five treatments were Arsenal (imazapyr), Oust (sulfometuron methyl), Arsenal+Oust sequential, Oust+Arsenal sequential, and control (no herbicide). […] to individual mutant or susceptible, […], with 12 plants per each herbicide treatment for both wild-type and mutants. Ten days later, the same rate of Oust was sprayed on six plants that had previously been treated with Arsenal, and the same rate of Arsenal was sprayed on six plants that had previously been treated with Oust, for both wild-type and mutants. […]
Plant height in resistant plants was not affected when sprayed with […] or imazapyr, as compared to the unsprayed resistant controls. […] It appeared that the imazapyr+sulfosulfuron methyl treatment stimulated growth in the resistant plants, an observation that will be confirmed in follow-up experiments. Various strains or genotypes of C. tinctoria were used in this study, so a direct evaluation of herbicide on plant height should be viewed with caution. […] Herbicide injury ratings for the resistant plants ranged from 0.5 to 1.2 (Table 2).

[3] = system: susceptible C. tinctoria plants; assay: Greenhouse herbicide spray test, susceptible plants; type: in vivo; details: SM 8 oz. a.i./A, IM 2 oz. a.i./A
Experimental: as §1
The range of herbicide injury ratings for the sprayed susceptible plants was 3.3 to 4.8, with essentially no injury for the unsprayed controls.

[4] = system: ALS enzyme from the resistant C. tinctoria mutants; assay: ALS enzyme assay, C. tinctoria mutant versus susceptible; type: biochemical
Excerpt: (§2) ALS enzyme Assay: An ALS enzyme assay was used to determine if resistance in the mutants was due to the ALS enzyme itself in the mutant plants. A modification was used of the colorimetric method of Singh B. K., Stidham M. A., and Shaner D. L. 1988. Assay of acetohydroxyacid synthase. Analytical Biochemistry 171:173-179. Rice plants were used as controls. Sulfometuron methyl (Oust), chlorsulfuron (Glean), and imazapyr (Arsenal) were used as ALS inhibitors. Briefly, 10 grams of young leaves pooled from either mutant plants or from susceptible plants were ground to a powder in liquid nitrogen, and mixed with 50 ml of extraction buffer containing 100 mM K2HPO4 (pH 7.5), 10 mM sodium pyruvate, 5 mM EDTA, 1 mM valine, 1 mM leucine, 10 mM cysteine, 0.1 mM flavin adenine dinucleotide, 5 mM MgCl2, 10% (v/v) glycerol, and 1% (w/v) polyvinylpyrrolidone. The homogenate was filtered through eight layers of cheesecloth and centrifuged at 25,000 g at 4° C. for 20 min. The supernatant was brought to 50% saturation with (NH4)2SO4 by adding an equal volume of 100% saturated extraction buffer, and was then allowed to stand for 20-30 min on ice. The resulting solution was centrifuged at 25,000 g at 4° C. for another 20 min. The pellet was dissolved in 10 ml resuspension buffer containing 100 mM K2HPO4 (pH7.5), 1 mM EDTA, 100 mM NaCl, and 10% (v/v) glycerol. Bradford Reagent (SIGMA, Saint Louis, Mo., USA) was used to determine the concentration of total protein in solution; and resuspension buffer was used to adjust the concentrations of total protein from wild- and mutant-type of C. tinctoria to the same level.
(§3) ALS activity was measured by mixing 1.5 ml of assay buffer, containing 100 mM K2HPO4 (pH 7.0), 10 mM MgCl2, 100 mM sodium pyruvate, 1 mM thiamine pyrophosphate, 0.1 mM flavin adenine dinucleotide, and 0.5 mL of the ALS extract, with varying amounts of herbicide (0.0.1, 1, 10, 100, 1000 μM). The mixture was then incubated at 37° C. for 1 h. […] The mixtures were then centrifuged at 12,000 g for 10 min, and absorbance was measured at 530 nm with a Spectrophotometer 690.

[5] = biological target: T1, AHAS enzyme from CL161 rice (Oryza sativa subsp. japonica, UniProt Q6K2E8, S627N); assay: ALS enzyme assay, CL161 rice versus CCDR rice; type: biochemical
T1 construct: from tissue; host or cells: leaves of CL161 rice plants; crude ammonium sulfate fraction
Excerpt: as §2, §3

[6] = system: Idlewild-grown control seed (herbicide-sensitive Coreopsis); assay: Field planting sprayed with Oust, Idlewild-grown control seed; type: in vivo, Coreopsis tinctoria; details: single application of Oust at 0.07 pounds ai/A
Excerpt: (§4) Seed were harvested from mature Coreopsis with a combine from plantings both inside and outside the herbicide treated areas at the Idlewild Research Station in Clinton, La. Seed were also harvested with a combine from the roadside area near Chase, La. Putative herbicide-resistant seed from the Chase location, and putative herbicide-sensitive seed from the Idlewild Research Station were separately cleaned and stored in a climate-controlled seed storage facility.
(§5) Seed samples from both seed sources were planted in March at the Idlewild Research Station using a small grain drill, at a 2 pound per acre seeding rate. Area one contained both control seed grown the previous season at the Idlewild Research Station, and seed obtained from the Chase, La. site. A second area was planted in March exclusively with seed from Chase, La. A third area was planted in April with seed from Chase, La.
(§6) A single application of Oust at 0.07 pounds ai/A was applied in mid-May to half of the first and third plantings and to all of the second planting.

[7] = system: susceptible transplants from Idlewild; assay: Transplanting trial, susceptible transplants; type: in vivo, Coreopsis tinctoria; details: applied 2 weeks after transplant, ratings 2 and 4 weeks after application
Experimental: A transplanting trial was also conducted in May at the Idlewild Research Station. Five-inch diameter divots of plants were collected at both the Chase and Idlewild sites. Divots were transplanted to a location at Idlewild which had had no previous Coreopsis crop. Divots were transplanted in a paired arrangement on 36 inch centers. Oust, Plateau and Outrider were applied at various rates 2 weeks after transplant. The trial used a randomized complete block design with 3 replications. Visual injury and height ratings were taken 2 and 4 weeks after application. Injury to the susceptible transplants from Idlewild ranged from a high of 100% at all rates of Oust to a low of 60% with the 0.06 pound ai/A rate of Outrider. No injury was observed, nor any height differences noted in any application made to the resistant transplants from the Chase site.

[8] = system: susceptible Coreopsis; assay: Field trial of ALS-inhibiting herbicides on F1 plants, commercial control seed; type: in vivo, Coreopsis tinctoria; details: Oust applied at 0.07 pounds ai/A, ratings taken at 23 and 49 days after application
Experimental: To confirm herbicide resistance, and to characterize herbicide resistance profiles, seeds from the roadside-harvested, putatively-resistant Coreopsis were harvested (F0) and planted in a field in a separate location from the original roadside stand. The resulting F0 plants were not subjected to herbicide treatment. F1 seeds were harvested from the F0 plants, and the F1 seeds were planted in a field in several blocks and replicates. The resulting F1 plants were treated with various AHAS-inhibiting herbicides.
Commercial Coreopsis tinctoria seed were obtained as controls from two commercial nurseries. The commercially-obtained seed and the experimental seed were planted with a small grain drill at a seeding rate of 2 pounds per acre. Three months later, herbicides were applied to the F1 plants at different rates in a randomized complete block design with three replications. The ALS-inhibiting herbicides used in this trial were sulfometuron methyl (trade name Oust™); imazapic (trade name Plateau™); sulfosulfuron, 1-(2-ethylsulfonylimidazo[1,2a]pyridin-3-ylsulfonyl)-3-(4,6-dimethoxypyrimidin-2-yl) urea (trade name Outrider™); and DPX 6447.
Percent injury ratings were taken at 23 and 49 days after herbicide application. All herbicide treatments injured the susceptible Coreopsis. […]

[9] = system: seed from Chase (herbicide-resistant Coreopsis); assay: Field planting sprayed with Oust, seed from Chase; type: in vivo, Coreopsis tinctoria
Excerpt: as §4, §5, §6

[10] = SM 8 oz. a.i./A, IM 2 oz. a.i./A, sequential sprays March 3 and March 13
[11] = sequential sprays March 3 and March 13, 25 days after treatment

T1 sequence (Q6K2E8 44-644 S627N): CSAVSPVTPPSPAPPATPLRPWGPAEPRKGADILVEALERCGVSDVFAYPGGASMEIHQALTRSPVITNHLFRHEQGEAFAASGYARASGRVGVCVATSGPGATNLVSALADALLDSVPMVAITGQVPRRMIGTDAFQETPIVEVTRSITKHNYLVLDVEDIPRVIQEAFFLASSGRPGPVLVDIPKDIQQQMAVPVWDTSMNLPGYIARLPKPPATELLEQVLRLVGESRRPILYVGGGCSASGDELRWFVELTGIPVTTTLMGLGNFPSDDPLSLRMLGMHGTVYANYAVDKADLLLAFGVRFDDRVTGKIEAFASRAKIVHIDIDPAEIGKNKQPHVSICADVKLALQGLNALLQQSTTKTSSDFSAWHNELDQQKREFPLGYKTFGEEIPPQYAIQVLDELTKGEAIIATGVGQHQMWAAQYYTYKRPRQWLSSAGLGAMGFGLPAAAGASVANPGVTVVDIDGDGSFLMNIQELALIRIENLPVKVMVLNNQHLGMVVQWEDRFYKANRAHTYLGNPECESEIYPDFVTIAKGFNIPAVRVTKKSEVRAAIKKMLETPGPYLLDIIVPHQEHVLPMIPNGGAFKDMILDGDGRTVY

Cc1cnc(C2=NC(C)(C(C)C)C(=O)N2)c(C(=O)O)c1 (racemic) [imazapic, (±)-2-[4,5-dihydro-4-methyl-4-(1-methyl-ethyl)-5-oxo-1H-imidazol-2-yl]-5-methyl-3-pyridinecarboxylic acid]
Pre-emergence and/or post-emergence resistance to herbicide [1]: Resistance has been demonstrated

CC(C)C1(C)N=C(c2ncccc2C(=O)O)NC1=O (centres unmarked) [Arsenal, 2-[4,5-dihydro-4-methyl-4-(1-methylethyl)-5-oxo-1H-imidazol-2-yl]-3-pyridinecarboxylic acid]
Plant height compared to the unsprayed resistant controls (in words) [2]: not affected | % height reduction compared to no spray control [2, 10]: 0% | Plant height (cm) [2, 10]: 9.2 cm | Injury rating ([2]; scale 0 = no injury, 10 = dead plant, SM 8 oz. a.i./A, IM 2 oz. a.i./A): 0.7 | % height reduction compared to no spray control [3, 11]: 80% | Plant height (cm) [3, 11]: 11.0 cm | Injury rating ([3]; scale 0 = no injury, 10 = dead plant): 3.5 | Tolerance of mutant ALS enzyme compared to susceptible variety ([4]; Arsenal at 10 to 100 μM, FIG. 1a): ~2.5 fold | Tolerance of CL161 rice enzyme compared to control ([5]; Arsenal at 10 μM, FIG. 1b): < 2 fold | Pre-emergence and/or post-emergence resistance to herbicide [1]: Resistance has been demonstrated | Resistance of the clone with mutations at both Pro197 and Trp574 [1]: strong resistance

COc1nc(C)nc(NC(=O)NS(=O)(=O)c2ccccc2Cl)n1 [Glean, 2-chloro-N-[(4-methoxy-6-methyl-1,3,5-triazin-2-yl)aminocarbonyl]benzenesulfonamide]
Tolerance of mutant AHAS compared to susceptible control ([4]; Glean at 1 to 10 μM, FIG. 1c): ~4.5 fold | Tolerance of CL161 rice AHAS compared to control ([5]; Glean at 1 μM, FIG. 1d): < 1 fold | Resistance of the clone with mutations at both Pro197 and Trp574 [1]: strong resistance

COC(=O)c1ccccc1S(=O)(=O)NC(=O)Nc1nc(C)cc(C)n1 [Oust, 2-[[[[(4,6-dimethyl-2-pyrimidinyl)amino]carbonyl]amino]sulfonyl]benzoic acid methyl ester]
injury rate [6]: 98% | Visual injury ([7]; all rates of Oust): 100% | Tolerance of mutant ALS compared to susceptible control (in words) ([4]; Oust, FIG. 1e): more tolerant than the susceptible control for Oust herbicide (sulfometuron methyl) (FIG. 1e), although the difference was not significant | Percent injury rating [8]: 98% | Tolerance of CL161 rice compared to susceptible variety CCDR (in words) ([5]; 100 μM of Oust, FIG. 1f): significantly greater tolerance | effect of second application ([9]; second application of Oust at 0.14 pounds ai/A): no noticeable effect | injury rate ([9]; single application of Oust at 0.07 pounds ai/A): less than 1% | Pre-emergence and/or post-emergence resistance to herbicide [1]: Resistance has been demonstrated | Resistance of the clone with mutations at both Pro197 and Trp574 [1]: strong resistance

CCS(=O)(=O)c1nc2ccccn2c1S(=O)(=O)NC(=O)Nc1nc(OC)cc(OC)n1 [Outrider, 1-(2-ethylsulfonylimidazo[1,2a]pyridin-3-ylsulfonyl)-3-(4,6-dimethoxypyrimidin-2-yl) urea]
Visual injury ([7]; 0.06 pound ai/A rate of Outrider): 60% | Pre-emergence and/or post-emergence resistance to herbicide [1]: Resistance has been demonstrated

COc1cc(OC)nc(NC(=O)NS(=O)(=O)c2ncccc2C(F)(F)F)n1 [flazasulfuron]
Pre-emergence and/or post-emergence resistance to herbicide [1]: Resistance has been demonstrated

COC(=O)c1ccccc1S(=O)(=O)NC(=O)Nc1nc(C)nc(OC)n1 [metsulfuron methyl, methyl 2-[[[[(4-methoxy-6-methyl-1,3,5-triazin-2-yl)amino]carbonyl]amino]sulfonyl]benzoate]
Pre-emergence and/or post-emergence resistance to herbicide [1]: Resistance has been demonstrated

COc1nc(C)nc(NC(=O)NS(=O)(=O)c2ccccc2OCCCl)n1 [triasulfuron, 3-(6-methoxy-4-methyl-1,3,5-triazin-2-yl)-1-[2-(2-chloroethoxy)-phenylsulfonyl]-urea]
Pre-emergence and/or post-emergence resistance to herbicide [1]: Resistance has been demonstrated
